Like-named read-outs stand apart in the source and are kept apart here. Where no end group is shown, it is not given here.
Assays:
[1] = target: T1, K^b sol (Mus musculus, UniProt P01901); assay: biochemical; type: binding, murine
T1 construct: K^b α1α2α3 domains (274 residues) and murine β2 microglobulin (99 residues); made in house; host or cells: Drosophila S2/M3 cells
T1 sequence (P01901 22-295): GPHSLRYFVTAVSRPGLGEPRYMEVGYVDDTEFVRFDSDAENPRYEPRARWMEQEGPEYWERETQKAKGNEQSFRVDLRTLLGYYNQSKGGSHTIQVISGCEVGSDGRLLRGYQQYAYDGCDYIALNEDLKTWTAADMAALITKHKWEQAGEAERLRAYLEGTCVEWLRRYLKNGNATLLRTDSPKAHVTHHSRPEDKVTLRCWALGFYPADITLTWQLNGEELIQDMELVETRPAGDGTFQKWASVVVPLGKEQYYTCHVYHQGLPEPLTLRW
T1 sequence (P01887 21-119 partner): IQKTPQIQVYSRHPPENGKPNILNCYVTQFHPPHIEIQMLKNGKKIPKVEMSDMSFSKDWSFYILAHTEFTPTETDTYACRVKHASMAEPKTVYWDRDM

[2] = tested on: B3/CD8 T cell hybridoma; assay: Antigen presentation assay: IL-2 production by B3/CD8 measured with CTLL ^3 H thymidine incorporation; conditions: peptide added to the culture medium, or protein osmotically loaded

For `CC[C@H](C)[C@H](NC(=O)[C@@H](NC(=O)[C@@H](N)CO)[C@@H](C)CC)C(=O)N[C@@H](CC(N)=O)C(=O)N[C@@H](Cc1ccccc1)C(=O)N[C@@H](CCC(=O)O)C(=O)N[C@@H](CCCCN)C(=O)N[C@@H](CC(C)C)C(=O)O` [OVA-8, reference compound], the Kd ([1]; read-out: KD) was 4.1 nM.

For DLRGYVYQGL [VSV-10N], the Kd [1] was 390 nM.

GYVYQGL [VSV-7, GYVYQGL] was tested, and the Kd [1] was 53 nM.

With LESIINFEKL [OVA-10N] the Kd ([1]; read-out: KD) was 280 nM.

Molecule LRGYVYQGL [VSV-9N] has a Kd [1] of 7.3 nM.

RGYVYQGLK [VSV-9C] was tested, and the Kd [1] was 6.9 nM.

With RGYVYQGLKS [VSV-10C] the Kd [1] was 21 nM.

With SIINFEKLT [OVA-9C] the Kd ([1]; read-out: KD) was 11 nM.

SIINFEKLTE [OVA-10C] showed a Kd ([1]; read-out: KD) of 14 nM.

B1: ovalbumin protein: ovalbumin (Sigma Chem. Co.) osmotically loaded into the cells (protein, UniProt P01012 2-386, looked up)
Ovalbumin: GSIGAASMEFCFDVFKELKVHHANENIFYCPIAIMSALAMVYLGAKDSTRTQINKVVRFDKLPGFGDSIEAQCGTSVNVHSSLRDILNQITKPNDVYSFSLASRLYAEERYPILPEYLQCVKELYRGGLEPINFQTAADQARELINSWVESQTNGIIRNVLQPSSVDSQTAMVLVNAIVFKGLWEKAFKDEDTQAMPFRVTEQESKPVQMMYQIGLFRVASMASEKMKILELPFASGTMSMLVLLPDEVSGLEQLESIINFEKLTEWTSSNVMEERKIKVYLPRMKMEEKYNLTSVLMAMGITDVFSSSANLSGISSAESLKISQAVHAAHAEINEAGREVVGSAEAGVDAASVSEEFRADHPFLFCIKHIATNAVLFFGRCVSP
B1 was tested, and the “T cell recognition of K^b -expressing Drosophila cells (IL-2 production)” value [2] was “no recognition occurred”.

Reference: patent publication US5827737A, “In vitro activation of cytotoxic T cells” (The Scripps Research Institute, priority 1996, dated 1998)
